Biological target: T1, rat UT-A1 (Rattus norvegicus, UniProt Q62668)
T1 construct: expressed in transfected cells; host or cells: MDCK cells (gift of Dr. Jeffrey Sands, Emory University)
T1 sequence (Q62668 1-929): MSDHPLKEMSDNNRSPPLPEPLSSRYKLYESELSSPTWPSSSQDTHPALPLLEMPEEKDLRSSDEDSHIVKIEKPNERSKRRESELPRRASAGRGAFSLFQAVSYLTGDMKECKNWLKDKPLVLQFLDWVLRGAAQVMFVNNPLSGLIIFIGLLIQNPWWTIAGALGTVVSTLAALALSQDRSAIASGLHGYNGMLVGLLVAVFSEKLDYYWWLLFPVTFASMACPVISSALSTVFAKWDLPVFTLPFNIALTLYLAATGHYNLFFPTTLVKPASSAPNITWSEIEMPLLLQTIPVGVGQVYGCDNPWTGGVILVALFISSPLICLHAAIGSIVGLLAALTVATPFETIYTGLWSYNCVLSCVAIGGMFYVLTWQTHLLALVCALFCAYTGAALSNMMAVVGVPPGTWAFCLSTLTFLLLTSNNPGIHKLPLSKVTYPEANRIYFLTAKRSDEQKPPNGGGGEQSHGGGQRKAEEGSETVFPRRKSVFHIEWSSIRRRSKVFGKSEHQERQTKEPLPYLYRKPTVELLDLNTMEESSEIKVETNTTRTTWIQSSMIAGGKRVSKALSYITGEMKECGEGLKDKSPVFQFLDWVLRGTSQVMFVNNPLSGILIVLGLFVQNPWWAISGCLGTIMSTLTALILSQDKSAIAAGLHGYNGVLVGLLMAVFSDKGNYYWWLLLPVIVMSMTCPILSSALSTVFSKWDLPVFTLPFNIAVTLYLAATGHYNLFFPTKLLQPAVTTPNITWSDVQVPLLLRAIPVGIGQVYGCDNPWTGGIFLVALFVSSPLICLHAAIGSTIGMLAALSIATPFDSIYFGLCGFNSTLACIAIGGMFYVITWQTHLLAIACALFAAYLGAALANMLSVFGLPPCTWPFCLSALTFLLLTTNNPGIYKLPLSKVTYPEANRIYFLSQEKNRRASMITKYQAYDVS
Assay: UT-A1-facilitated urea flux across MDCK-UT-A1 cell layers
Type: cell-based
Settings: forskolin-stimulated MDCK-UT-A1 cells, 15-min time point; read-out: EC50 against rat UT-A1
Method: Concentration-inhibition studies were performed to study the effect of the active mouse UT-B inhibitors on urea transport by UT-A. The amino acid sequences of UT-B and UT-A urea transporter isoforms share significant similarity. The cells used in these studies were MDCK cells that expressed rat UT-A1. MDCK-UT-A1-expressing cells were grown on collagen-coated porous filters until they were electrically tight, at which point 15 mM urea was introduced into buffer bathing the basolateral cell surface.
MDCK cells stably transfected with rat UT-A1 (MDCK-UT-A1) (Fröhlich et al., Am J Physiol. in press; Fröhlich et al., Am. J. Physiol. Cell Physiol. 286:C1264-70 (2004). Epub on Jan. 28, 2004) were generously provided by Dr. Jeffrey Sands (Emory University School of Medicine, Atlanta, Ga.). Cells were grown in Dulbecco's Modified Eagle Medium (DMEM) with bicarbonate and supplemented with 10% fetal bovine serum (FBS), 25 mM HEPES buffer, penicillin G (100 U/mL), streptomycin (100 μg/mL) and hygromycin (500 μg/mL). For determining urea flux, cells were grown on 12-mm collagen-coated TRANSWELL inserts (0.4 μm pore size; Costar) as described (Fröhlich et al., Am J Physiol. in press; Fröhlich et al., 2004, supra). The TRANSWELL inserts were incubated in hygromycin-free medium for 1 hr in a 5% CO2 tissue culture incubator (37° C.), and then 2×10^5 cells/cm^2 were loaded onto each insert. Cells were used after culturing the cells for 4 days in hygromycin-free medium, at which time they formed tight monolayers (transepithelial resistance 500-600 Ω·cm^2).
UT-A1-facilitated urea flux in the basolateral-to-apical direction across unstimulated and forskolin-stimulated MDCK-UT-A1 cell layers was measured in response to a 15-mM urea gradient. Experiments were carried out in 12-well plates in which PBS, containing either DMSO vehicle or forskolin, with or without UT-B inhibitor, added to both the apical-facing (0.2 mL) and basal-facing (1 mL) surfaces of cells on the porous filters. Cultures were incubated in the absence of urea for 30 min at 37° C. Then, the basal-facing solution was replaced with PBS (containing same components) with 15 mM urea. Five μL samples of apical fluid were collected at specified times during incubation at 37° C., and urea concentration was determined using a commercial kit based on chromogenic urea complexation at 520-nm wavelength (Quantichrom™ Urea Assay Kit, BioAssay Systems, Hayward, Calif.). Forskolin (10 μM), with or without UT-B transport inhibitors, was added from 1000× DMSO stock solutions (0.2% final DMSO content). Inhibition of UT-A1-mediated transport was defined as % inhibition=100% (Aforsk−Atest)/(Aforsk−Aphlor). Aforsk, and Aphlor were averaged absorbance values (at 520 nm) for cultures treated with forskolin and forskolin+phloretin, respectively, and Atest were values from cultures treated with forskolin+test compound.

SMILES | EC50 [µM]
Cc1ccc(Nc2nnc(-c3ccc(C(N)=O)cc3)c3ccccc23)cc1 [ureainh-302] | ~15
NC(=O)CSc1oc(-c2ccccc2)nc1S(=O)(=O)c1ccc(Br)cc1 [ureainh-101] | ~1.2
